Results: ChEMBL document CHEMBL5678812, “Inhibitors of p21-activated kinases (PAKs)” (J Med Chem, 2015)
One block for each compound: values may come before it.

Tests used:
[1] = molecular target: Ephrin type-B receptor 1 (Homo sapiens) (UniProt P54762); assay: Inhibition of EphB1 (unknown origin) at 0.1 uM relative to control
[2] = molecular target: Tyrosine-protein kinase Lyn (Homo sapiens) (UniProt P07948); assay: Inhibition of LynB (unknown origin) at 0.1 uM relative to control
[3] = molecular target: Protein kinase C eta type (Homo sapiens) (UniProt P24723); assay: Inhibition of PKCeta (unknown origin) at 0.1 uM relative to control
[4] = molecular target: Cyclin-dependent kinase 7/ cyclin H (Homo sapiens) (UniProt P51946+P50613); assay: Inhibition of CDK7/CyclinH (unknown origin) at 0.1 uM relative to control; format: protein-complex assay
[5] = molecular target: CDK8/Cyclin C (Homo sapiens) (UniProt P49336+P24863); assay: Inhibition of CDK8/CyclinC (unknown origin) at 0.1 uM relative to control; format: protein-complex assay
[6] = molecular target: Receptor-interacting serine/threonine-protein kinase 2 (Homo sapiens) (UniProt O43353); assay: Inhibition of RIPK2 (unknown origin) at 0.1 uM relative to control
[7] = molecular target: Serine/threonine-protein kinase WNK2 (Homo sapiens) (UniProt Q9Y3S1); assay: Inhibition of WNK2 (unknown origin) at 0.1 uM relative to control
[8] = molecular target: Aurora kinase B (Homo sapiens) (UniProt Q96GD4); assay: Inhibition of Aurora B (unknown origin) at 0.1 uM relative to control
[9] = molecular target: Serine/threonine-protein kinase BRSK1 (Homo sapiens) (UniProt Q8TDC3); assay: Inhibition of BrSK1 (unknown origin) at 0.1 uM relative to control
[10] = organism: Homo sapiens; assay: Inhibition of CDK2/cyclinA (unknown origin) at 0.1 uM relative to control
[11] = molecular target: Cyclin-dependent kinase 5/CDK5 activator 1 (Homo sapiens) (UniProt Q00535+Q15078); assay: Inhibition of CDK5/p35 (unknown origin) at 0.1 uM relative to control; format: protein-complex assay
Sequence of Cyclin-dependent kinase 5/CDK5 activator 1 (Homo sapiens) (Q00535 whole entry, canonical isoform): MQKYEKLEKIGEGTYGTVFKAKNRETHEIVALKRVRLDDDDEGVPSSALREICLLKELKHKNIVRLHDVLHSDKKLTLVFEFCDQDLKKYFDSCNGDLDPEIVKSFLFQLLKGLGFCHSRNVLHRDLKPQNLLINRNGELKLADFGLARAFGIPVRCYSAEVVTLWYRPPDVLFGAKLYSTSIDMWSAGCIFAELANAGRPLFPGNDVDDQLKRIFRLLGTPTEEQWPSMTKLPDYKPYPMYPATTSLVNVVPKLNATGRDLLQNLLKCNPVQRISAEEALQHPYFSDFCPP
Sequence of Cyclin-dependent kinase 5/CDK5 activator 1 (Homo sapiens) (Q15078 99-307 partner limits assumed): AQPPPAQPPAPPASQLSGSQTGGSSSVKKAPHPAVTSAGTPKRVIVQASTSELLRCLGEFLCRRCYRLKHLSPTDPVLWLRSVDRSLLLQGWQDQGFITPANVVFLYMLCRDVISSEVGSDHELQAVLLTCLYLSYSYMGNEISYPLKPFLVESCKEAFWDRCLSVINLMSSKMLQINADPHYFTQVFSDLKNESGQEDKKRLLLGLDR

[12] = molecular target: Casein kinase I isoform gamma-1 (Homo sapiens) (UniProt Q9HCP0); assay: Inhibition of CK1gamma1 (unknown origin) at 0.1 uM relative to control
[13] = molecular target: Calcium/calmodulin-dependent protein kinase type II subunit beta (Homo sapiens) (UniProt Q13554); assay: Inhibition of CaMKIIbeta (unknown origin) at 0.1 uM relative to control
Sequence of Calcium/calmodulin-dependent protein kinase type II subunit beta (Homo sapiens) (Q13554 whole entry): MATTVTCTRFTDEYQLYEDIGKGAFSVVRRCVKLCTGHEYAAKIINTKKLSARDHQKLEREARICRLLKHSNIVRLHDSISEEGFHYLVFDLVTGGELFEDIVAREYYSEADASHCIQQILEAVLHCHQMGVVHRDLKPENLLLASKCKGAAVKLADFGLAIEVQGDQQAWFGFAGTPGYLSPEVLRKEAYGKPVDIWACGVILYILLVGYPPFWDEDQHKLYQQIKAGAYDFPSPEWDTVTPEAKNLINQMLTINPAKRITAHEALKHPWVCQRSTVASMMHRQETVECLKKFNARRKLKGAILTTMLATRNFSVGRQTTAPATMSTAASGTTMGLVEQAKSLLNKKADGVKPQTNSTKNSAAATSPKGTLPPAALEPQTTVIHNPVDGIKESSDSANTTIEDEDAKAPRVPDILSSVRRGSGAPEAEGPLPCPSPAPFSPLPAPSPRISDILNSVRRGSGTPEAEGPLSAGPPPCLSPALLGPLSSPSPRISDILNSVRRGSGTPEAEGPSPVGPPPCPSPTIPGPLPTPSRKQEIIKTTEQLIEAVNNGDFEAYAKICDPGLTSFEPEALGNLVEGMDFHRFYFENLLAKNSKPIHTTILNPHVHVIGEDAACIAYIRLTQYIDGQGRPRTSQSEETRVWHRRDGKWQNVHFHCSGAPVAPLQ

[14] = molecular target: Dual specificity tyrosine-phosphorylation-regulated kinase 1B (Homo sapiens) (UniProt Q9Y463); assay: Inhibition of DYRK1B (unknown origin) at 0.1 uM relative to control
[15] = molecular target: Ephrin type-B receptor 3 (Homo sapiens) (UniProt P54753); assay: Inhibition of EphB3 (unknown origin) at 0.1 uM relative to control
[16] = molecular target: Fibroblast growth factor receptor 4 (Homo sapiens) (UniProt P22455); assay: Inhibition of FGFR4 (unknown origin) at 0.1 uM relative to control
[17] = molecular target: Tyrosine-protein kinase Fgr (Homo sapiens) (UniProt P09769); assay: Inhibition of Fgr (unknown origin) at 0.1 uM relative to control
Sequence of Tyrosine-protein kinase Fgr (Homo sapiens) (P09769 2-529 limits assumed): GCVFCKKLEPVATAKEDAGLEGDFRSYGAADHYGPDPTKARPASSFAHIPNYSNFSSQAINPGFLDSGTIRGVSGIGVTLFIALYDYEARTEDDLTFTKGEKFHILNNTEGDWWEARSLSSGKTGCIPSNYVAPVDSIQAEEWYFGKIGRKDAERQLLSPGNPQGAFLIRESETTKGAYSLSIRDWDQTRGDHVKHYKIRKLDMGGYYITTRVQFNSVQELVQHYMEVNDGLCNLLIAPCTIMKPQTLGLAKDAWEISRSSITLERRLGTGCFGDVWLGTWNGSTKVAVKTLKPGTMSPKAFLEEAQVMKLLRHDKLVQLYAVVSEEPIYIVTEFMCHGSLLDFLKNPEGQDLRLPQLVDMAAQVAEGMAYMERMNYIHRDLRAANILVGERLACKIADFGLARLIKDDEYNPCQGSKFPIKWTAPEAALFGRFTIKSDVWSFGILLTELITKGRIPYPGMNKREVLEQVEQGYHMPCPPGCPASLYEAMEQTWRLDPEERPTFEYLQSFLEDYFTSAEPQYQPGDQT

[18] = molecular target: Vascular endothelial growth factor receptor 3 (Homo sapiens) (UniProt P35916); assay: Inhibition of Flt4 (unknown origin) at 0.1 uM relative to control
[19] = molecular target: G protein-coupled receptor kinase 3 (Homo sapiens) (UniProt P35626); assay: Inhibition of GRK3 (unknown origin) at 0.1 uM relative to control
[20] = molecular target: G protein-coupled receptor kinase 5 (Homo sapiens) (UniProt P34947); assay: Inhibition of GRK5 (unknown origin) at 0.1 uM relative to control
[21] = molecular target: Megakaryocyte-associated tyrosine-protein kinase (Homo sapiens) (UniProt P42679); assay: Inhibition of Hyl (unknown origin) at 0.1 uM relative to control
[22] = molecular target: Tyrosine-protein kinase ITK/TSK (Homo sapiens) (UniProt Q08881); assay: Inhibition of Itk (unknown origin) at 0.1 uM relative to control
[23] = molecular target: Tyrosine-protein kinase JAK1 (Homo sapiens) (UniProt P23458); assay: Inhibition of JAK1 (unknown origin) at 0.1 uM relative to control
[24] = molecular target: Tyrosine-protein kinase Lck (Homo sapiens) (UniProt P06239); assay: Inhibition of Lck (unknown origin) at 0.1 uM relative to control
Sequence of Tyrosine-protein kinase Lck (Homo sapiens) (P06239 2-509 limits assumed): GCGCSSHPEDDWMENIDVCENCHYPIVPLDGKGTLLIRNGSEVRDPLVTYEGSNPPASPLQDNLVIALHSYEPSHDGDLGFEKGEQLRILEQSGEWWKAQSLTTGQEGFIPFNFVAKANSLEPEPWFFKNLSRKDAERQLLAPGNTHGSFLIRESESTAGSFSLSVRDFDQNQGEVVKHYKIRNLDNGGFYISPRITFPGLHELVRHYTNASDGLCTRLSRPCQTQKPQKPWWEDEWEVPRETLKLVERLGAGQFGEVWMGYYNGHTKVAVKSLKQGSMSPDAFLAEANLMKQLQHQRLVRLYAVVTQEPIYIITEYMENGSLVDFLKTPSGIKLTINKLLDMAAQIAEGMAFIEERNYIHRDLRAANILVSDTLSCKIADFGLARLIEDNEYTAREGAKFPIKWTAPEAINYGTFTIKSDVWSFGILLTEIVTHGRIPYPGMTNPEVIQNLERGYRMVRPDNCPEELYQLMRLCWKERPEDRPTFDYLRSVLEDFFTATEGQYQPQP

[25] = molecular target: MAP kinase-activated protein kinase 3 (Homo sapiens) (UniProt Q16644); assay: Inhibition of MAPKAPK3 (unknown origin) at 0.1 uM relative to control
Sequence of MAP kinase-activated protein kinase 3 (Homo sapiens) (Q16644 whole entry, looked up): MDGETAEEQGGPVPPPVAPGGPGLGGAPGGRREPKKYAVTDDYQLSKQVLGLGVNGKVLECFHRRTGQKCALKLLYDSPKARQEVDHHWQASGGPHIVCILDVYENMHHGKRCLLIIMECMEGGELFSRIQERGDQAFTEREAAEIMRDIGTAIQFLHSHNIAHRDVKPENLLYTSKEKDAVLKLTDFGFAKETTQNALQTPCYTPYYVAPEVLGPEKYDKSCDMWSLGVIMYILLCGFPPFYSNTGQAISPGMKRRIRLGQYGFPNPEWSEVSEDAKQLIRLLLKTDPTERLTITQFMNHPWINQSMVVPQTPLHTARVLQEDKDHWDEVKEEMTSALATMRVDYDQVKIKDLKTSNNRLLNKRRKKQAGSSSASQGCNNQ

[26] = molecular target: Maternal embryonic leucine zipper kinase (Homo sapiens) (UniProt Q14680); assay: Inhibition of MELK (unknown origin) at 0.1 uM relative to control
[27] = molecular target: SRSF protein kinase 3 (Homo sapiens) (UniProt Q9UPE1); assay: Inhibition of MSSK1 (unknown origin) at 0.1 uM relative to control
[28] = molecular target: Serine/threonine-protein kinase Nek2 (Homo sapiens) (UniProt P51955); assay: Inhibition of NEK2 (unknown origin) at 0.1 uM relative to control
[29] = molecular target: Serine/threonine-protein kinase Nek4 (Homo sapiens) (UniProt P51957); assay: Inhibition of NEK4 (unknown origin) at 0.1 uM relative to control
[30] = molecular target: Serine/threonine-protein kinase Nek6 (Homo sapiens) (UniProt Q9HC98); assay: Inhibition of NEK6 (unknown origin) at 0.1 uM relative to control
[31] = molecular target: Phosphatidylinositol 4,5-bisphosphate 3-kinase catalytic subunit delta isoform (Homo sapiens) (UniProt O00329); assay: Inhibition of PI3Kdelta (unknown origin) at 0.1 uM relative to control
[32] = molecular target: Protein kinase C theta type (Homo sapiens) (UniProt Q04759); assay: Inhibition of PKCtheta (unknown origin) at 0.1 uM relative to control
[33] = molecular target: Protein kinase C zeta type (Homo sapiens) (UniProt Q05513); assay: Inhibition of PKCzeta (unknown origin) at 0.1 uM relative to control
[34] = molecular target: MAP kinase-activated protein kinase 5 (Homo sapiens) (UniProt Q8IW41); assay: Inhibition of PRAK (unknown origin) at 0.1 uM relative to control
[35] = molecular target: cAMP-dependent protein kinase catalytic subunit PRKX (Homo sapiens) (UniProt P51817); assay: Inhibition of PrKX (unknown origin) at 0.1 uM relative to control
Sequence of cAMP-dependent protein kinase catalytic subunit PRKX (Homo sapiens) (P51817 whole entry): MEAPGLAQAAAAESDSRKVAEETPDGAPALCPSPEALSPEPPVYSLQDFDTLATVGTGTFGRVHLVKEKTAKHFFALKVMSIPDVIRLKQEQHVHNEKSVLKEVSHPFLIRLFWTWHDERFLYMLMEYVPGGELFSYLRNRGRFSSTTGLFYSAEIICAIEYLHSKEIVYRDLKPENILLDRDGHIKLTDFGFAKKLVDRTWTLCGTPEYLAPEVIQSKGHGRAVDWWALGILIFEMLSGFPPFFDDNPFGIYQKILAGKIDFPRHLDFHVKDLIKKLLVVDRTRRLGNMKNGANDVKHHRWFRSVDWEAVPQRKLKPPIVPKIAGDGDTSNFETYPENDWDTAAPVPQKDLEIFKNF

[36] = molecular target: Serine/threonine-protein kinase Sgk2 (Homo sapiens) (UniProt Q9HBY8); assay: Inhibition of SGK2 (unknown origin) at 0.1 uM relative to control
[37] = molecular target: Serine/threonine-protein kinase 25 (Homo sapiens) (UniProt O00506); assay: Inhibition of YSK1 (unknown origin) at 0.1 uM relative to control
Sequence of Serine/threonine-protein kinase 25 (Homo sapiens) (O00506 whole entry, looked up): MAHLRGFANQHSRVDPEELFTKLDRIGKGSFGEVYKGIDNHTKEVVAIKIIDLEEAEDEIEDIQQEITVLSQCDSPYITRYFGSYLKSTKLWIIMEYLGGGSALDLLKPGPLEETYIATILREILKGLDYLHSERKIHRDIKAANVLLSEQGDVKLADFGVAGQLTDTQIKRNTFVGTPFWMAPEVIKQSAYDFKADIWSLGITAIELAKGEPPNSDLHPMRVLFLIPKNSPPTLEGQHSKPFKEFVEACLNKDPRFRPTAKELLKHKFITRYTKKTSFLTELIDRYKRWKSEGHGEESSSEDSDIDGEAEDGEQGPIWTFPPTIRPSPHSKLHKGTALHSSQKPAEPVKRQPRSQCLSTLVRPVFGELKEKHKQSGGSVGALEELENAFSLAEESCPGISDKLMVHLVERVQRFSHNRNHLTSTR

[38] = molecular target: Serine/threonine-protein kinase mTOR (Homo sapiens) (UniProt P42345); assay: Inhibition of mTOR (unknown origin) at 0.1 uM relative to control
[39] = molecular target: Mitogen-activated protein kinase 11 (Homo sapiens) (UniProt Q15759); assay: Inhibition of p38beta (unknown origin) at 0.1 uM relative to control
Sequence of Mitogen-activated protein kinase 11 (Homo sapiens) (Q15759 whole entry): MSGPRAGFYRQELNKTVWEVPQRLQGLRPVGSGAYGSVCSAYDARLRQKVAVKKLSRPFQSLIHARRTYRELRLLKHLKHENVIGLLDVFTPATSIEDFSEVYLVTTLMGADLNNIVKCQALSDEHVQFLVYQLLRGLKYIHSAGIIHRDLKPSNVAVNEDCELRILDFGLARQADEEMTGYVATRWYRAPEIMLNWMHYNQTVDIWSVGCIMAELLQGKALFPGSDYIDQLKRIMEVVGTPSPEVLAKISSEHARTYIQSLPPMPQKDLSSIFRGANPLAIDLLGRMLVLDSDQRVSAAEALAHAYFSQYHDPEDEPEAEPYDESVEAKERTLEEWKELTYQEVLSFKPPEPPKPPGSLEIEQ

Sequence of Ephrin type-B receptor 1 (Homo sapiens) (P54762 whole entry): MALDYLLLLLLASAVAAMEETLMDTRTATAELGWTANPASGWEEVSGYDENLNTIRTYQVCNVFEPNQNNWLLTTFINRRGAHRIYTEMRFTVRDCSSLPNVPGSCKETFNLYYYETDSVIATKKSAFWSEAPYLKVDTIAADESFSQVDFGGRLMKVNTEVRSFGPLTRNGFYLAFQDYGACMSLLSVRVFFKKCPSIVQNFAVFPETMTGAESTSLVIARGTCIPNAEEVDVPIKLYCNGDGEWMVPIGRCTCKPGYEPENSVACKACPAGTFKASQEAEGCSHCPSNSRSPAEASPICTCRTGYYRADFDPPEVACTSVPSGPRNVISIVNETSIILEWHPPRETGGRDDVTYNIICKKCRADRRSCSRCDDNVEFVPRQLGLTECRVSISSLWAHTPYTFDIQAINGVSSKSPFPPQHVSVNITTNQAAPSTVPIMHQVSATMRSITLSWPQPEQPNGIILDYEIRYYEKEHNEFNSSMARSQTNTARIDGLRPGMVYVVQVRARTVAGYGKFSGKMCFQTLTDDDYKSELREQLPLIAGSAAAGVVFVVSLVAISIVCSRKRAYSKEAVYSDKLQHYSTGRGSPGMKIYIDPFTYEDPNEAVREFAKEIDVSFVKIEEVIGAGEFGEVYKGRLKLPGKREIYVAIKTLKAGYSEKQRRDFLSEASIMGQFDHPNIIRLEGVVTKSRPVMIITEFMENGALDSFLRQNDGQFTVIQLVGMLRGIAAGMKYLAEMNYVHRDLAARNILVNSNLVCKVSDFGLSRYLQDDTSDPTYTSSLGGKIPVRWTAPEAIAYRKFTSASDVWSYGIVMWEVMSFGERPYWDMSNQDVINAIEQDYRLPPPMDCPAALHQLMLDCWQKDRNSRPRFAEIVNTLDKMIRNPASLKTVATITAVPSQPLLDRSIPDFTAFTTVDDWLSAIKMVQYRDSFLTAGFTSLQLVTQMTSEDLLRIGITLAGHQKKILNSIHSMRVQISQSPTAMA

- inhibition [1]: 93%
- inhibition [2]: 99.8%
- inhibition [3]: 17%
- inhibition [4]: 31%
- inhibition [5]: 57.3%
- inhibition [6]: 101%
- inhibition [7]: 0%
Compound: CN1CCc2cc(-c3cnc4[nH]cc(C(=O)c5ccccc5Cl)c4c3)ccc2C1

- inhibition [8]: 4.7%
- inhibition [9]: 4.6%
- inhibition [10]: 1.9%
- inhibition [11]: -1.6%
- inhibition [12]: 1.9%
- inhibition [13]: 11.7%
- inhibition [14]: 0.5%
- inhibition [15]: 5.5%
- inhibition [16]: -1%
- inhibition [17]: 3.6%
- inhibition [18]: 1%
- inhibition [19]: 1.1%
- inhibition [20]: 2.5%
- inhibition [21]: 6.6%
- inhibition [22]: 4%
- inhibition [23]: 0.1%
- inhibition [24]: 7.6%
- inhibition [25]: 4.8%
- inhibition [26]: 4.1%
- inhibition [27]: 9.8%
- inhibition [28]: 6.3%
- inhibition [29]: 2%
- inhibition [30]: 9.9%
- inhibition [31]: -4.8%
- inhibition [32]: 12.3%
- inhibition [33]: 22.8%
- inhibition [34]: 5%
- inhibition [35]: 5.3%
- inhibition [36]: -2.9%
- inhibition [37]: 6.5%
- inhibition [38]: -2.4%
- inhibition [39]: -6.4%
Compound: COCCNc1nc2ccc(C#CC3(O)CCCCC3)cc2n1-c1ccnc(N)n1
